Measurements from ChEMBL document CHEMBL3988442, “University of Dundee, Small-Polar-MMV Screening Library” (2021).
“And” between values parts separate entries of the source, which are not always exact repeats. Equal entries are not always repeated.

How the values were obtained:
Plasmodium falciparum [1] = experiment: Plasmodium falciparum sporozoite viability assay; type: functional, organism-based; conditions: for IC50: Plasmodium falciparum
Plasmodium falciparum [2] = experiment: Calibr Malaria Delayed Death Assay SOP; type: functional, organism-based; conditions: for IC50: Plasmodium falciparum
[3] = In vitro enzyme assay to detect hydrolysis of chlorophenol red-beta-D-[…] directly proportional to the number of Toxoplasma stably expressing beta-galactosidase; type: functional, organism-based, Toxoplasma gondii; conditions: Toxoplasma gondii
[4] = microbe, parasite or virus in culture; conditions: Mycobacterium tuberculosis, 72 h, read-out: pIC50 (converted)
[5] = microbe, parasite or virus in culture; conditions: Mycobacterium tuberculosis, 96 h, read-out: pIC50 (converted)

## CCC(CC)c1nnc(NC(=O)N2CCCC(NC(C)=O)C2)s1 (configuration not stated)
Plasmodium falciparum [1]
  pIC50: 5.262 and 5.718

## CSc1cc2c(cc1NC(=O)NCC1CCOC1)OCCO2 (configuration not stated)
Plasmodium falciparum [1]
  pIC50: 6.419
  IC50: 218 nM

## Cc1cc(NC(=O)c2ccc(CN3CC[C@H](O)C3)cc2)ccc1F
Plasmodium falciparum [1]
  pIC50: 7.801
  IC50: 15.2 nM

## c1cc(-c2noc(CN3CCc4c(ncn4C4CC4)C3)n2)cs1
Plasmodium falciparum [1]
  pIC50: 5.546
  IC50: 2470 nM

## CCc1noc(CN(Cc2ccc3c(c2)OCO3)C2CCCC2)n1
Plasmodium falciparum [1]
  pIC50: 5.474 and 5.085

## COc1ccc(-c2ccc(C3CNCCO3)nc2)cc1.Cl (configuration not stated)
Plasmodium falciparum [2]
  pIC50: 6.456
  IC50: 190 nM
Plasmodium falciparum [1]
  pIC50: 7.404
  IC50: 73 nM

## Cc1cn2c(n1)C(CNCC1=Cc3cc(Cl)ccc3OC1)CCC2 (configuration not stated)
Plasmodium falciparum [2]
  pIC50: 5.847
  IC50: 1660 nM
Plasmodium falciparum [1]
  pIC50: 5.932
  IC50: 908 nM

## c1ccc2sc(CN3CCOC(Cn4cncn4)C3)nc2c1 (configuration not stated)
Plasmodium falciparum [1]
  pIC50: 6.123
  IC50: 621 nM

## CC(C)(C)c1cn2nc(N3CCCC(Cn4cncn4)C3)sc2n1 (configuration not stated)
Plasmodium falciparum [1]
  pIC50: 4.991
  IC50: > 10500 nM

## c1ccc2sc(CN3CCOC(Cn4cccn4)C3)nc2c1 (configuration not stated)
Plasmodium falciparum [1]
  pIC50: 6.078 and 6.413

## CC1CCCN(Cc2csc(-c3ncccn3)n2)CC1 (configuration not stated)
Plasmodium falciparum [1]
  pIC50: 5.365
  IC50: 4800 nM

## COc1ccc2cc(C3CN(C(=O)N(C)C)CCO3)ccc2c1 (configuration not stated)
Plasmodium falciparum [1]
  pIC50: 7.993
  IC50: 14.9 nM

## CN1CCOC(CNC(=O)CCCOc2ccccc2F)C1 (configuration not stated)
Plasmodium falciparum [1]
  pIC50: 5.757 and 6.214

## CC(=O)Nc1ncc(S(=O)(=O)Nc2ccc3c(c2)OCCO3)s1
[3]
  IC50: > 50100 nM
Plasmodium falciparum [1]
  pIC50: 6.905
  IC50: 144 nM

## c1ccc(-c2noc(CN3CCc4cncnc4C3)n2)nc1
Plasmodium falciparum [1]
  pIC50: 5.93 and 5.587

## Cn1c(-c2cc3n(n2)CCCN(CC(=O)O)C3)nc2ccccc21
Plasmodium falciparum [1]
  pIC50: 5.921 and 6.257

## COC(=O)CSCc1noc(-c2ccc(Cl)cc2)n1
Plasmodium falciparum [1]
  pIC50: 6.573
  IC50: 454 nM
[4]
  IC50: > 50100 nM
[5]
  IC50: > 50100 nM

## O=C(Nc1ccc(Cl)cn1)c1nn(C2CCS(=O)(=O)C2)c2c1CCCC2 (configuration not stated)
Plasmodium falciparum [1]
  pIC50: 5.512 and 5.897

## CC(C)(C)n1ncc2c(=O)n(CC(=O)NCc3ccccc3Cl)cnc21
Plasmodium falciparum [1]
  pIC50: 7.103
  IC50: 103 nM

## COC(=O)CC1CCN(C(=O)Nc2ccc(-c3ccn[nH]3)cc2)C1 (configuration not stated)
Plasmodium falciparum [1]
  pIC50: 6.226
  IC50: 436 nM

## c1ccc2sc(CN3CCCC3c3noc(C4CC4)n3)nc2c1 (configuration not stated)
Plasmodium falciparum [1]
  pIC50: 5.79 and 6.107

## Cn1cc(CCC(=O)NS(=O)(=O)N2CCCc3ccccc32)cn1
Plasmodium falciparum [1]
  pIC50: 6.583
  IC50: 157 nM

## COC(=O)CCCNC(=O)N1CCc2c([nH]c3ccc(Cl)cc23)C1
Plasmodium falciparum [1]
  pIC50: 5.609 and 6.035

## COc1ccc2cc(C3CN(C(=O)CN4CCCC4)CCO3)ccc2c1 (configuration not stated)
Plasmodium falciparum [1]
  pIC50: 5.408
  IC50: 7630 nM

## c1cncc(OCc2nc(C3CC3)nn2-c2ccc3c(c2)OCCO3)c1
Plasmodium falciparum [1]
  pIC50: 5.428
  IC50: 3840 nM

## O[C@H]1CN(CCOc2ccc(F)cc2)CC[C@@]12CCCO2
Plasmodium falciparum [1]
  pIC50: 5.66
  IC50: 2550 nM

## COCCNC(=O)Nc1cc2c(cc1SC)OCCO2
Plasmodium falciparum [1]
  pIC50: 6.283
  IC50: 555 nM

## CN1CCN(C2CCN(c3cnc4ccccc4n3)CC2)C1=O
Plasmodium falciparum [1]
  pIC50: 7.03 and 7.343

## COCc1noc(-c2ccc(N3CCC[C@H]3CO)nc2)n1
Plasmodium falciparum [1]
  pIC50: 7.269
  IC50: 60.2 nM

## CCc1n[nH]c(C(=O)NCCn2nccc2C)c1C
Plasmodium falciparum [1]
  IC50: > 10500 nM

## Cc1ccnc(NC(=O)c2ccc(Cl)o2)c1
Plasmodium falciparum [1]
  pIC50: 7.621 and 7.995

## CN(C)CC(C)(O)CNC(=O)Nc1sc2ccccc2c1Cl (configuration not stated)
Plasmodium falciparum [1]
  pIC50: 5.506
  IC50: 2690 nM

## NC(=O)C1CN(c2ccc3cc(Br)ccc3n2)CCO1 (configuration not stated)
Plasmodium falciparum [1]
  pIC50: 7.699 and 7.366

## CO[C@H]1C[C@@H](O)C12CCN(C(=O)CCCOc1ccccc1)CC2
Plasmodium falciparum [1]
  pIC50: 6.089 and 6.557

## O=C(Nc1ccc(N2CCCC2)nc1)N1CCc2ccccc2C1
Plasmodium falciparum [1]
  pIC50: 5.522
  IC50: 2030 nM

## CCn1cc(C(=O)N2CCOC(c3nc(-c4cccs4)no3)C2)cn1 (configuration not stated)
Plasmodium falciparum [1]
  pIC50: 5.925 and 5.539

## COc1cccc(-c2noc(C3CCN(Cc4cn(C)nc4C)C3)n2)c1 (configuration not stated)
Plasmodium falciparum [1]
  pIC50: 5.995
  IC50: 863 nM

## OCC1CCCN1c1cc(NCCc2ccccn2)ncn1 (configuration not stated)
Plasmodium falciparum [1]
  pIC50: 7.276
  IC50: 51.7 nM

## Cc1ccc(Nc2nccc(C3CCCN(CC(=O)N(C)C)C3)n2)nc1 (configuration not stated)
Plasmodium falciparum [1]
  pIC50: 5.724
  IC50: 2680 nM

## CC(C)C(=O)N1CCN(Cc2csc(-c3ccccn3)n2)CC1
Plasmodium falciparum [1]
  pIC50: 5.915
  IC50: 965 nM
